Test system: purified astrocyte cultures
Assay: CXCL1 addition to purified spinal cord astrocyte cultures, CSPG by immunocytochemistry and dot blot
Assay type: cell-based
Settings: CXCL1 0.5 ng/ml, 3 days
Protocol: Cells were treated with CXCL1 (0.5 ng/ml) for 3 days and assayed for CSPG deposition onto substrate by immunocytochemistry and released into medium. […] GFAP (red), CSPG (green) (FIG. 34) For the culture studies, cultures of spinal cord astrocytes were assayed for basal levels of mRNA expression of CXCL1 and CXCR2 by RT-PCR (FIG. 33). The effect of 3 day CXCL1 protein addition (0.5 ng/ml) on CSPG protein expression was conducted on spinal cord astrocyte cultures as well as by immunocytochemistry and dot blot assays to analyze secreted and bound CSPG (FIG. 34).

CXCL1: soluble secreted chemoattractive cytokine of the ELR positive family of CXC chemokines; preferred receptor CXCR2
CSPG expression (deposition onto substrate, immunocytochemistry): induces CSPG expression
CSPG released into medium (dot blot): increased CSPG
astrocyte morphology: changes morphology

Source: patent US20090041753A1, “Cytokine signaling” (priority 2006, published 2009)
